The results in this text go back to PubChem BioAssay (NCI).

Some test systems named below: A498 renal; A549 NSCLC; HCC-2998 colon; MCF7 breast; MDA-MB-435; OVCAR-3 ovarian; OVCAR-8 ovarian; SK-MEL-28 melanoma; SK-OV-3 ovarian; SNB-19 CNS.
Holding throughout (test): growth of human tumour cells (NCI), 48 h

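Cells were grown in 96-well plates and exposed to each compound for 48 hours at five concentrations; endpoints were interpolated linearly between bracketing concentrations, or set to the highest concentration if not reached. TGI: total growth inhibition.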

Take `C=CC[n+]1c2ccccc2n2cc([N+](=O)[O-])ccc21`: the TGI is 55 µM with A498 renal; > 100 µM in the assay with A549 NSCLC; > 100 µM with HCC-2998 colon; 79.8 µM in the assay with MCF7 breast; 89.2 µM in the assay on MDA-MB-435; 69.7 µM with OVCAR-3 ovarian. Further, the TGI in the assay with OVCAR-8 ovarian is 86.2 µM; in the assay with SK-MEL-28 melanoma, 89.9 µM; in the assay with SK-OV-3 ovarian it was > 100 µM; with SNB-19 CNS it was > 100 µM.

Take `CCc1cc2c(c3c1CCCC3=O)CC1(Cc3ccc(C(=O)OC)cc3C1)C2` (stereo not drawn): the TGI in the assay on A498 renal, in the assay on A549 NSCLC, with HCC-2998 colon, in the assay on MCF7 breast, with MDA-MB-435 and in the assay with OVCAR-3 ovarian was > 100 µM in each case. Further, the TGI in the assay with OVCAR-8 ovarian, in the assay on SK-MEL-28 melanoma, in the assay on SK-OV-3 ovarian and with SNB-19 CNS was > 100 µM in each case.

As for `Cc1c(C(=O)OCc2ccccc2)[n+](=O)c2cc(Cl)c(Cl)cc2n1[O-]`, the TGI was found to be 35.6 µM in the assay with A498 renal; 28 µM in the assay on A549 NSCLC; 28.5 µM in the assay on HCC-2998 colon; 54.4 µM in the assay with MCF7 breast; 42.4 µM in the assay on MDA-MB-435; 25 µM with OVCAR-3 ovarian. Further, the TGI is 46.5 µM in the assay on OVCAR-8 ovarian, 64.8 µM in the assay on SK-MEL-28 melanoma, 60 µM with SK-OV-3 ovarian and 68.1 µM with SNB-19 CNS.

As to `Cc1ccccc1N=C(N)Nc1ccccc1C`, the TGI with A498 renal was > 100 µM; in the assay with A549 NSCLC, > 100 µM; in the assay on HCC-2998 colon, 62.1 µM; in the assay with MCF7 breast, > 100 µM; in the assay with MDA-MB-435, > 100 µM; in the assay on OVCAR-3 ovarian it was > 100 µM. For the same compound, the TGI in the assay with OVCAR-8 ovarian, with SK-MEL-28 melanoma, in the assay on SK-OV-3 ovarian and in the assay with SNB-19 CNS was > 100 µM throughout.

On to `Nc1nc(Cl)cc(NC23CC4CC(CC(C4)C2)C3)n1`, for which the TGI with A498 renal, in the assay on A549 NSCLC, with HCC-2998 colon, in the assay with MCF7 breast, in the assay on MDA-MB-435 and in the assay on OVCAR-3 ovarian was > 100 µM throughout. Also, the TGI with OVCAR-8 ovarian, in the assay with SK-MEL-28 melanoma, in the assay on SK-OV-3 ovarian and in the assay on SNB-19 CNS was > 100 µM throughout.

As for `COC(=O)C1C(=O)N(C)C(=O)N2CCCC12` (stereo not drawn), the TGI in the assay on A498 renal, in the assay with A549 NSCLC, in the assay with HCC-2998 colon, in the assay on MCF7 breast, in the assay on MDA-MB-435 and in the assay on OVCAR-3 ovarian was > 100 µM throughout. For the same compound, the TGI in the assay with OVCAR-8 ovarian, with SK-MEL-28 melanoma, with SK-OV-3 ovarian and in the assay on SNB-19 CNS was > 100 µM in each case.

`O=C1NC(=O)C(C(CC(=O)c2ccc(Cl)cc2)c2ccc(Cl)cc2)C(=O)N1` (stereo not drawn): the TGI in the assay on A498 renal is > 100 µM; in the assay with A549 NSCLC, > 100 µM; in the assay on HCC-2998 colon, > 100 µM; with MCF7 breast it was 44.2 µM; in the assay on MDA-MB-435, > 100 µM; with OVCAR-3 ovarian, > 100 µM. The TGI in the assay with OVCAR-8 ovarian, in the assay with SK-MEL-28 melanoma and in the assay with SNB-19 CNS was > 100 µM throughout.

Consider `CN(C)CCCNc1ccc2nnn3c4ccc(O)cc4c(=O)c1c23`, for which the TGI in the assay with A498 renal is 20.1 µM; with A549 NSCLC, 16.9 µM; with HCC-2998 colon it was 15.2 µM; with MCF7 breast, 24.8 µM; in the assay with MDA-MB-435 it was 20.9 µM; with OVCAR-3 ovarian, 23 µM. Moreover, the TGI in the assay on OVCAR-8 ovarian was 17.6 µM; with SK-MEL-28 melanoma, 22.5 µM; with SK-OV-3 ovarian, 23.4 µM; with SNB-19 CNS, 23.7 µM.

Turning to `O=c1oc(C(C(F)(F)F)C(F)(F)F)nc2ccccc12`, the TGI in the assay on A498 renal, in the assay on A549 NSCLC, in the assay on HCC-2998 colon, in the assay with MCF7 breast, in the assay with MDA-MB-435 and in the assay on OVCAR-3 ovarian was > 100 µM each time. The TGI in the assay on OVCAR-8 ovarian, in the assay on SK-MEL-28 melanoma, in the assay with SK-OV-3 ovarian and in the assay with SNB-19 CNS was > 100 µM each time.

`O=C1c2c(O)cccc2-c2nn(CCNCCO)c3ccc(NCCNCCO)c1c23`: the TGI in the assay on A498 renal was 0.578 µM; in the assay on A549 NSCLC, 0.482 µM; in the assay on HCC-2998 colon, 1 µM; in the assay with MCF7 breast it was 3.15 µM; in the assay with MDA-MB-435, 1.87 µM; in the assay with OVCAR-3 ovarian, 5.86 µM. The TGI with OVCAR-8 ovarian came out at 4.24 µM; in the assay on SK-MEL-28 melanoma it was 1.97 µM; with SK-OV-3 ovarian, 1.14 µM; with SNB-19 CNS, 0.405 µM.

As for `CCN(CC)C(=S)SS(=O)(=O)c1cccc(N)c1`, the TGI in the assay on A498 renal, in the assay with A549 NSCLC, in the assay on HCC-2998 colon, in the assay with MCF7 breast, in the assay with MDA-MB-435 and in the assay with OVCAR-3 ovarian was > 100 µM each time. The TGI in the assay on OVCAR-8 ovarian, with SK-MEL-28 melanoma, with SK-OV-3 ovarian and in the assay with SNB-19 CNS was > 100 µM each time.

Turning to `NNC(=O)C1(NC(=O)c2ccccc2)C(c2ccccc2)C(c2ccccc2)=NN1c1ccccc1` (stereo not drawn), the TGI with A498 renal, with A549 NSCLC, with HCC-2998 colon, in the assay on MCF7 breast, in the assay on MDA-MB-435 and with OVCAR-3 ovarian was > 100 µM in each case. Besides, the TGI with OVCAR-8 ovarian, in the assay on SK-MEL-28 melanoma, with SK-OV-3 ovarian and in the assay with SNB-19 CNS was > 100 µM in each case.

`Cc1ccc(S(=O)(=O)Nn2c(O)c(C#N)c(-c3ccc(Cl)cc3)c(C#N)c2=O)cc1`: the TGI in the assay with A498 renal, with A549 NSCLC, in the assay on HCC-2998 colon, in the assay on MCF7 breast, in the assay on MDA-MB-435 and in the assay on OVCAR-8 ovarian was > 100 µM in each case. Further, the TGI in the assay with SK-MEL-28 melanoma, in the assay with SK-OV-3 ovarian and in the assay on SNB-19 CNS was > 100 µM each time.
